Assay results taken from PubChem BioAssay (NCI).
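Results reflect a 48-hour exposure of cells in 96-well plates to compound at five concentrations. The concentration for full growth arrest is given as TGI.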

Experiments:
Experiment in all cases: NCI-60 cell line screen, 48 h
[1] = test system: NCI-H226 lung
[2] = test system: HOP-92 NSCLC
[3] = test system: SN12C renal
[4] = test system: M14 melanoma
[5] = test system: T-47D breast
[6] = test system: NCI/ADR-RES ovarian
[7] = test system: MDA-N
[8] = test system: SK-MEL-5 melanoma
[9] = test system: OVCAR-5 ovarian
[10] = test system: OVCAR-4 ovarian
[11] = test system: MDA-MB-231 breast
[12] = test system: SNB-19 CNS
[13] = test system: HCT-15 colon
[14] = test system: A549 NSCLC
[15] = test system: U251 CNS
[16] = test system: HCT-116 colon

SMILES	TGI [1] [µM]	TGI [2] [µM]	TGI [3] [µM]	TGI [4] [µM]	TGI [5] [µM]	TGI [6] [µM]	TGI [7] [µM]	TGI [8] [µM]	TGI [9] [µM]	TGI [10] [µM]	TGI [11] [µM]	TGI [12] [µM]	TGI [13] [µM]	TGI [14] [µM]	TGI [15] [µM]	TGI [16] [µM]
CC1=CP(=O)(c2c(C(C)C)cc(C(C)C)cc2C(C)C)CCC1Cl (stereo not given)	35.1	31	34.7	29.8	31.9	40.2	46.7	31.7	32.5	48.5	30.7	30.3	39.8	32.7	32.3	38.4
CCCCCCCCCCCCCCCCNc1ccn(C2CC(O)C(COC(c3ccccc3)(c3ccccc3)c3ccc(OC)cc3)O2)c(=O)n1 (stereo not given)	> 100	> 100	> 100	> 100	> 100	> 100	> 100	> 100	> 100	> 100	> 100	> 100	> 100	> 100	> 100	> 100
C(#CP(c1ccccc1)c1ccccc1)P(C#CP(c1ccccc1)c1ccccc1)c1ccccc1	> 100	> 100	> 100	13	> 100	> 100	> 100	> 100	> 100	> 100	> 100	> 100	> 100	> 100	> 100	> 100
COc1cc2c(cc1OC)C(=O)/C(=C/c1cc(C)cc(C)c1)C2	0.617	> 100	32.6	> 100	45.6	> 38	0.0621	0.932	> 86.4	> 100	7.44	> 89.1	> 47.8	18	> 81.8	11.6
COc1ccccc1C(=O)NCC1CCCN2CCCCC12 (stereo not given)	> 100	> 100	> 100	> 100	> 100	> 100	> 100	> 100	> 100	> 100	> 100	> 100	> 100	> 100	> 100	> 100
CC(C)C1=CC(=O)[C@@](C)(C2[C@H](O)C[C@@]3(C)[C@@H]4CC=C5[C@@H](CC[C@@H](OC6OCC(O)C(O)C6OC6OC(C)C(O)C(O)C6O)C5(C)C)[C@]4(C)C(=O)C[C@]23C)O1 (stereo not given in full)	> 100	> 100	> 100	> 100	> 100	> 100	> 100	> 100	> 100	> 100	> 100	> 100	> 100	> 100	> 100	> 100
Cc1cc2nc3c(C#N)c4c(c(-c5ccc(Cl)cc5)n3c2cc1C)CCC4	41	50.7	75.4	32.7	52.1	> 100	88	40.3	–	97.1	49.1	37.8	70.3	> 100	78.4	32.7
CCCCOC(=O)C1CC[C@H]2[C@@H]3CCc4cc(OC(=O)c5cccc6c(=O)c7ccccc7[nH]c56)ccc4[C@H]3CC[C@]12C (stereo not given in full)	20.6	16.5	15.3	20.5	14.1	24.3	14.5	12.8	19.8	14.5	14.5	–	13.5	17.6	18.7	17.1
COc1ccccc1C1(c2c(OC)c(=O)c2=O)SCCCS1	> 100	> 100	> 100	> 100	> 100	> 100	> 100	> 100	> 100	> 100	> 100	> 100	> 100	> 100	> 100	> 100
COC1C(N(C)C)=C(c2ccccc2)C(=O)N2CCc3ccccc3C12 (stereo not given)	> 100	> 100	> 100	> 100	> 100	> 100	> 100	> 100	> 100	> 100	> 100	> 100	> 100	> 100	> 100	> 100
CC1=C(C)CC2(C=C(C(C)(C)C)C(=O)C(C(C)(C)C)=C2)SC1	34.4	47.7	33.2	99.4	87.3	39.4	90.3	27.4	35.7	> 100	29.2	31.5	–	65.3	29.9	> 100
Cc1ccc2c(c1)nc1n2C(N)=Nc2ccccc2S1	> 100	> 100	> 100	> 100	> 100	> 100	> 100	> 100	> 100	> 100	> 100	> 100	> 100	> 100	> 100	> 100
c1ccc2c(c1)cc1n2CCc2c-1[nH]c1ccccc21	> 10	> 10	> 10	> 10	> 10	> 10	> 10	> 10	> 10	> 10	> 10	> 10	> 10	> 10	> 10	> 10
Cc1cccc(CC(Cc2ccc(C)cc2C(=O)O)C(=O)O)c1 (stereo not given)	> 100	> 100	> 100	> 100	> 100	> 100	> 100	> 100	> 100	> 100	> 100	> 100	> 100	> 100	> 100	> 100
CCN1CCC(CNC(=O)c2ccc(N)cc2)N1CC (stereo not given)	> 100	> 100	> 100	> 100	> 100	> 100	> 100	> 100	> 100	> 100	> 100	> 100	> 100	> 100	> 100	> 100
O=c1c(Cc2ccc(Cl)cc2)nnc2sc(-c3ccc(-c4ccc(Cl)cc4Cl)o3)nn12	> 100	> 100	> 100	> 100	> 100	> 100	> 100	> 100	> 100	> 100	> 100	> 100	> 100	> 100	> 100	> 100
COc1cc(OC)c2c(c1)OC(c1cccnc1)C(c1ccccc1)C2=O (stereo not given)	> 100	> 100	> 100	> 100	> 100	> 100	> 100	> 100	> 100	> 100	> 100	> 100	> 100	> 100	> 100	> 100
CC(C)=CC[C@]12CCN(C)[C@H]1N(S(=O)(=O)c1ccccc1)c1ccccc12	> 100	> 79.9	> 100	–	> 76	> 100	> 100	–	> 100	> 100	> 100	> 100	> 100	> 100	> 58.2	> 100
Br[C@@H]1[C@H]2c3nc4ccccc4nc3[C@@H]1C[C@H]2Br	86.2	> 100	> 100	> 100	> 100	> 100	> 100	69.5	> 100	> 100	> 100	> 100	> 100	> 100	> 100	> 100
C/C(=C/CC[C@]1(CO)CC[C@]2(C)[C@H](CC[C@@H]3[C@@]4(C)CC[C@H](OC5OC(CO)C(O)C(O)C5OC5OC(CO)C(O)C(O)C5O)C(C)(C)[C@@H]4CC[C@]32C)[C@H]1O)CO (stereo not given in full)	> 100	> 100	> 100	> 100	> 100	> 100	> 100	> 100	> 100	> 100	> 100	> 100	> 100	> 100	> 100	> 100
N/C1=C/C(=O)NC(=O)c2c(c3ccccc3oc2=O)C1	> 100	> 100	> 100	> 100	> 100	> 100	> 100	–	> 100	> 100	> 100	> 100	> 100	> 100	> 100	> 100
CC1OC2OC3C(OCC(O)C3O)OC(=O)[C@]34CCC(C)(C)CC3C3=CCC5[C@@]6(C)C[C@H](O)[C@H](OC7OC(CO)C(O)C(O)C7OC7OCC(OC(=O)CC(C)(O)CC(=O)OC1C(O)C2O)C(O)C7O)[C@@](C)(CO)C6CC[C@@]5(C)[C@]3(C)CC4 (stereo not given in full)	35.9	6.03	21.1	8.87	17.6	28.3	13.8	16.3	7	–	20.6	21.3	19.2	10.7	12.6	17.4
Cn1c(=O)c2c(nc3sc4ccccc4c(=O)n32)n(C)c1=O	> 100	> 100	> 100	> 100	> 100	> 100	> 100	> 100	> 100	> 100	> 100	> 100	> 100	–	> 100	> 100
O=C(O)/C=C/c1ccc2c(c1)CC1(Cc3ccccc3C1)C2	99.4	> 100	> 100	> 100	> 100	> 100	> 100	> 100	> 100	> 100	> 100	–	> 100	> 100	> 100	51.4
Cn1cc(S(=O)(=O)NC(=O)Nc2ccc(Cl)cc2)c(=O)c2ccc(F)cc21	> 100	> 100	> 100	–	> 100	> 100	> 100	> 100	> 100	> 100	> 100	> 100	> 100	> 100	> 100	> 100
CCOC(=O)c1c(SC(=O)c2ccc(OC)cc2)n(-c2ccccc2)c(=S)n(-c2ccccc2)c1=O	> 100	> 100	> 100	83.2	> 100	> 100	> 100	–	> 100	> 100	81	> 100	47.8	> 100	> 100	47.9
Nc1nc(Cl)c(Cl)c(NCC2(O)CCC2)n1	> 100	> 100	> 100	–	64.2	> 100	> 100	> 100	> 100	69	> 100	> 100	> 100	> 100	> 100	> 100
C#CC(O)/C=C/CCCCCCC#CC/C=C\CC#CCCCCCCCCC(O)C#C (stereo not given)	35.5	5.05	4.79	–	36.3	10.2	5.48	9.71	27	15.7	11.8	37.5	10.4	25.8	> 55.8	7.77
